Experimental data published in patent US10344065B2, “Method for treating Alzheimer's disease and method for downregulating protein aggregation in brain” (National Cheng Kung University, priority 2017, dated 2019).

Tests used:
Format in all cases: in vivo, mouse
3×Tg mice = test: Novel object recognition test; details: vs sham
Procedure: All experiments were carried out in accordance with the National Institutes of Health Guidelines for animal research (Guide for the Care and Use of Laboratory Animal) and approved by the National Cheng Kung University Institutional Animal Care and Use Committee. The 3×Tg mice (B6; 129-Psen1tm1Mpm Tg[APPSwe, tauP301L]1Lfa/Mmjax), were obtained from the Jackson Laboratory (Bar Harbor, […], USA) and housed in a controlled room (temperature 23±1° C., humidity 55±5%, 12-hour light/12-hour dark cycle, light cycle begins at 06:00) located in the Laboratory Animal Center of National Cheng Kung University (Tainan, Taiwan) with unrestricted access to food and water. All mice were genotyped using a protocol provided by the Jackson Laboratory. The 3×Tg mice develop intracellular Aβ immuno-positive staining as early as 3-4 months and aggregates of hyperphosphorylated tau in the hippocampus around 12 months of age. Impaired synaptic transmission and long-term potentiation are evident about 6 months of age. At the age of 10 months (body weight, 31˜35 g), five 3×Tg mice received four consecutive weekly injections of Zfra4-10 solution (2 mM in phosphate buffered saline [PBS], 100 μL each injection) from the tail veins. […]
The experiment was performed from 6 PM each day. […] The cumulative times spent by the mouse in exploring each of the objects were recorded during a 5-minute period. […] The times spent in exploring each object during a 5-minute period were recorded in either the STM or the LTM test. […]
All experimental results were represented as mean±standard error of the mean. The results for novel object recognition test, probe test of Morris water maze, relative ventricle area, and relative optical density of pS412-tau immunoreactivity were analyzed by two-tailed Mann-Whitney test, whereas the Aβ-positive cell number was analyzed by two-tailed unpaired t-test. The Morris water maze learning section results were analyzed using a repeated mixed-model analysis of variance with training session as within-subject factor and the Zfra injection as between-subject factor. […]

[1] = tested on: pyramidal neurons in the hippocampi; test: Melanoma B16F10-induced neurodegeneration in nude mice; details: hippocampi of nude mice pretreated 3 consecutive weeks via tail veins, then B16F10 inoculated
Procedure: FIG. 4 includes photos showing that Zfra suppresses melanoma B16F10-mediated neurodegeneration in the hippocampus. Nude mice were preinjected with 100 μL, of sterile Milli-Q water or Zfra4-10 (1 mM in sterile water) in 3 consecutive weeks. After treatment for a week, these mice were inoculated with melanoma B16F10 cells on both flanks (2×10^5 cells in 100-μL, PBS). Mice were sacrificed when the tumor sizes grew up to 2000-3000 mm^3 in about a month. (A) Zfra blocked neurodegeneration in the hippocampus (top panel) and prevented the formation of TPC6AΔ plaques in the cortex (bottom panel), which negatively correlates with pS14-WWOX expression. Note the presence of condensed apoptotic nuclei in the hippocampal neurons in the control mice, (B) Metastasis of B16F10 cells to the lung was blocked in Zfra-treated mice. Compared to controls, Zfra suppressed p-S14WWOX expression in the lung by ˜72% suppression (three sections). […] (C and D) The non-spatial learning and memory were determined by novel object recognition task for both 3×Tg and Wwox+/− mice. […]
Six- to eight-week-old male nude (BALB/cAnN.Cg-Foxn1^nu/CrlNarl) mice (National Laboratory Animal Center, Taiwan) were used. […] Tumor volumes were measured daily and calculated using the equation, D×(d)^2/2, where D and d are the major and minor diameters, respectively. […] Z-cell distribution in organs was determined under fluorescence microscopy.

WWOX = WWOX phosphorylation in melanoma-bearing nude mice; details: B16F10-bearing nude mice, n=3
Procedure: FIG. 4 includes photos showing that Zfra suppresses melanoma B16F10-mediated neurodegeneration in the hippocampus. Nude mice were preinjected with 100 μL, of sterile Milli-Q water or Zfra4-10 (1 mM in sterile water) in 3 consecutive weeks. After treatment for a week, these mice were inoculated with melanoma B16F10 cells on both flanks (2×10^5 cells in 100-μL, PBS). Mice were sacrificed when the tumor sizes grew up to 2000-3000 mm^3 in about a month. (A) Zfra blocked neurodegeneration in the hippocampus (top panel) and prevented the formation of TPC6AΔ plaques in the cortex (bottom panel), which negatively correlates with pS14-WWOX expression. Note the presence of condensed apoptotic nuclei in the hippocampal neurons in the control mice, (B) Metastasis of B16F10 cells to the lung was blocked in Zfra-treated mice. Compared to controls, Zfra suppressed p-S14WWOX expression in the lung by ˜72% suppression (three sections). […] (C and D) The non-spatial learning and memory were determined by novel object recognition task for both 3×Tg and Wwox+/− mice. […] Also, see data in FIG. 1.
Six- to eight-week-old male nude (BALB/cAnN.Cg-Foxn1^nu/CrlNarl) mice (National Laboratory Animal Center, Taiwan) were used. Mice were intravenously injected into tail veins with 100 μL of Zfra1-31 or Zfra4-10 (2 mM), or sterile water. After injection for 1-8 weeks, mouse melanoma B16F10 or human glioma 13-06-MG cells (2-2.5×10^6 cells/100-μL saline) were then inoculated in subcutaneous sites at both flanks. Tumor volumes were measured daily and calculated using the equation, D×(d)^2/2, where D and d are the major and minor diameters, respectively. At indicated time point, mouse organs, including brain, lung, spleen, and liver, were harvested and fixed with 4% paraformaldehyde. IHC was carried out using indicated specific antibodies to determine protein expression in tissues and organs. Where indicated, TMR-Zfra was used to stain spleen, brain, and lung tissues. Z-cell distribution in organs was determined under fluorescence microscopy.

“RRSSSCK [Zfra4-10, truncated zinc finger-like peptide, amino acids 4-10 of Zfra]” was tested, and the “exploring times of the novel object, short-term memory task” value (3×Tg mice; 3×Tg mice, 2 hours after acquisition, P=0.074) was “marginal, but not significant, increase”, the “novel object exploring times, long-term memory task” value (3×Tg mice; 3×Tg mice, 24 hours after acquisition, P=0.008) was “significantly higher” and the “exploring times on each object, acquisition phase” value (3×Tg mice; 11-month-old 3×Tg mice, one week after four weekly tail vein injections (2 mM, 100 μL), 5-minute acquisition, P>0.5) was “approximately equal exploring times on each object”. The apoptotic nuclei [1] was 0±1%, the “suppression of Ser14 phosphorylation of WWOX (pS14-WWOX)” value (WWOX; brain (hippocampus)) was 87±5% and the “suppression of Tyr33 phosphorylation in WWOX” value (WWOX; brain) was 2±6%. For the same substance, the “suppression of phosphorylation in Tyr33 in WWOX in the lung” value (WWOX; lung) was 5±3%.
